Data from PMC6271266, “Synthesis and Biological Evaluation of Liguzinediol Mono- and Dual Ester Prodrugs as Promising Inotropic Agents” (Molecules, 2014).
Converted amounts (≈) assume the structure as drawn.

Columns and labels:
[1] = Metabolism in human liver microsomes; format: in vitro ADME; details: for half-life: human, human liver microsomes, pH 7.4, read-out: t1/2 (Human Liver Microsomes) (converted); for bioconversion to LZDO or monoester in human liver microsomes: result in words
Procedure: (§1) For a rationally designed prodrug intended to prolong the half-life of the active moiety, the metabolic lability should be sufficient and continuous. Preliminary metabolic stability was assessed in human plasma and human liver microsomes The profile of disappearance of each prodrug followed a pseudo-first-order trend, and half-lives were calculated from the linear slopes of logarithmic plots of remaining prodrug over time.
To the human liver microsomes which were dissolved in 50 mM phosphate buffer solution (pH 7.4) to a concentration of 1 mg/mL, a prodrug (100 μL, initial concentrations were 4.20–9.85 mM) in methanol and NADPH (100 μL, 1 mM) also in 50 mM phosphate buffer solution (pH 7.4) were successively added to initiate the incubation. The solution was then incubated at 37 °C and the subsequent procedures of sample preparations were similar to those in Section 3.5. All experiments were performed at least in triplicate.
(§2) Separation and quantitation of the releasing LZDO and the prodrugs were carried out using a HPLC procedure. The HPLC system was equipped with a Waters 2695 gradient pump, a Waters 2487 UV detector at 278 nm, and an Empower 2 data station. The analytical column for in vitro samples was a Boston Green ODS-AQ column (4.6 mm × 50 mm, 5 μm) and the injection volume was 10 μL. Gradient elution methods were performed with a flow rate at 1.0 mL/min on Boston Green ODS-AQ column maintained at 30 °C. The percentage of mobile phase consisting of methanol and water was varied to elute analytes (see Supplementary Material for details of the HPLC elution). The methods provided rapid analysis for quantifying LZDO, prodrug and internal standard simultaneously. When qualifying the releasing amount of LZDO, separate standard curves under specific analytic condition were prepared by spiking a known amount of LZDO and internal standard in blank matrix. Disappearance of each prodrug from in vitro samples was analyzed by taking the ratio of peak areas detected at sampling time to that at initial time. As for in vivo pharmacokinetic analysis, determinations only referred to LZDO and an Ultimate XB-C18 column (3.0 mm × 50 mm, 3 μm) with an injection volume of 2 μL was used. The flow rate on Ultimate XB-C18 column was 0.4 mL/min with a column temperature of 30 °C. The mobile phase consisted of methanol (A) and water (B). The initial mobile phase composition was 4% A/96% B and maintained for 8 min. After that the mobile phase composition was changed to 80% A/20% B over 4 min and held at that ratio for an additional 4 min. The mobile phase was returned to initial composition over 1 min and re-equilibrated for 3 min. For in vivo analytical samples, a separate standard curve was prepared using blank rat plasma and ranged from 0.39 to 50 μg/mL.

[2] = Hydrolysis (chemical stability) in phosphate buffer pH 7.4; format: physicochemical; details: buffer solution pH 7.4, 37 °C, n = 3, mean ± SD
Procedure: The chemical stabilities of the target products were analyzed by high-performance liquid chromatography (HPLC) and were calculated as the amount unchanged within 24 h in buffer solutions at pH 7.4.
Methanolic stock solutions of each compound were added to 10 mL of 50 mM phosphate buffer solution (pH 7.4). The resulting solution was placed in a constant shaker bath set at 37 °C and after 24 h, a 10 μL aliquot of reaction solution was taken and analyzed by HPLC [35]. All experiments were performed in triplicate.

[3] = Hydrolysis in 80% human plasma; format: in vitro ADME; details: for half-life: human, 80% human plasma, pH 7.4, read-out: t1/2 (80% Human Plasma) (converted); for bioconversion to LZDO or monoester in human plasma: result in words
Procedure: as §1
A prodrug (100 μL, initial concentrations were 4.20–9.85 mM) in methanol was added to human plasma (1000 μL) diluted to 80% with 50 mM phosphate buffer solution (pH 7.4) and was placed in a constant shaker bath set. The resulting solution was subsequently incubated at 37 °C and at appropriate time intervals methanol (1 mL) containing caffeine as internal standard was added in order to deproteinize the serum. The sample was vortexed for 3 min, and then centrifuged for 5 min at 5000 g. 900 μL of clear supernatant was withdrawn and evaporated to remove the solvent. Before analysis by RP-HPLC, the samples were dissolved in methanol (200 μL), vortexed again for 5 min, and then centrifuged for 5 min at 12,000 g. All experiments were performed at least in triplicate.
as §2

[4] = Partition coefficient, n-octanol / 50 mM phosphate buffer pH 7.4; format: physicochemical; details: 1-octanol/phosphate buffer (7.4) at 25 °C, n = 3, mean ± SD; for logP: n-octanol/50 mM phosphate buffer, pH 7.4
Procedure: Partitioning studies were performed with n-octanol and 50 mM phosphate buffer solution (pH 7.4) following standard procedures described in the literature. All experiments were conducted in triplicate, and the determination of LZDO was also carried out as a reference. Meanwhile, ChemBioDraw Ultra 12.0 was used to determine the calculated log p values as reference to the observed values.

[5] = Capacity factor (k') by HPLC (lipophilic index); format: physicochemical; details: n = 3, mean ± SD
Procedure: According to the method described in the literature, the capacity factor (k') of the prodrugs was determined using high-performance liquid chromatography (HPLC). Retention times of each prodrug and LZDO were measured and k' values were calculated from the following equation: k' = (t' − t0)/t0(1) where t0 is the retention time of the uracil and t' is the retention time of each compound. All experiments were conducted in triplicate.

[6] = Aqueous solubility in 50 mM phosphate buffer pH 7.4; format: physicochemical; details: for solubility at 24 h: thermodynamic from solid
Procedure: An excess of each prodrug was added to 5 mL of 50 mM phosphate buffer solution (pH 7.4), and shaken at 25 °C in a water bath to establish equilibration for 24 h. After the equilibration, the samples were filtered through a membrane filter (0.45 μm) and analyzed by HPLC. All experiments were conducted in triplicate.

[7] = prodrug disappearance, from pseudo-first-order rate constant
[8] = aqueous buffer, 50 mM phosphate buffer pH 7.4, 25 °C, 24 h, n = 3, mean ± SD

Compound | half-life [1, 7] | % Unchanged at 24 h (pH 7.4) [2] | half-life [3, 7] | logP [4] | melting point | Capacity Factor [5] | bioconversion to LZDO or monoester in human liver microsomes [1] | bioconversion to LZDO or monoester in human plasma [3] | Log P [4] | solubility at 24 h [6, 8] | % Max of LZDO Released (Human Liver Microsomes) ([1]; maximum percentage of liguzinediol released at 6 h incubation, 37 °C, NADPH) | t1/2 (Human Liver Microsomes) [1, 7] | % Max of LZDO Released (80% Human Plasma) ([3]; maximum percentage of liguzinediol released at 6 h incubation, 37 °C) | t1/2 (80% Human Plasma) [3, 7] | Solubility ([6]; 50 mM phosphate buffer pH 7.4, 25 °C, 24 h, n = 3, mean ± SD) | solubility at 24 h ([6]; phosphate buffer, 25 °C, pH 7.4, aqueous buffer, as restated in conclusions)
CCCCCCCCCC(=O)OCc1nc(C)c(COC(=O)CCCCCCCCC)nc1C [Compound D10, 2,5-Didecanoyloxymethyl-3,6-dimethylpyrazine] | 4.1 ± 0.5 h | 98.7 ± 0.4% | 4.2 ± 0.4 h | 2.87 ± 0.16 | 46 to 47 °C | 1.068 ± 0.057 |  |  |  |  |  |  |  |  |  | 
CCCCCCCCCCCCCCCCCC(=O)OCc1nc(C)c(COC(=O)CCCCCCCCCCCCCCCCC)nc1C [Compound D18, 3,6-Dimethyl-2,5-dioctadecanoyloxymethylpyrazine] |  | stable ^c |  |  | 75 to 76 °C | 6.134 ± 0.084 | no bioconversion | no bioconversion | thoroughly partitioned into n-octanol |  |  |  |  |  |  | 
CCCCCCCCCCCC(=O)OCc1nc(C)c(COC(=O)CCCCCCCCCCC)nc1C [Compound D12, 2,5-Didodecanoyloxymethyl-3,6-dimethylpyrazine] | 7.9 ± 0.9 h | 99.8 ± 0.5% | 7.9 ± 1 h | 3.77 ± 0.21 | 55 to 56 °C | 1.640 ± 0.032 |  |  |  |  |  |  |  |  |  | 
Cc1nc(COC(=O)C(C)(C)C)c(C)nc1COC(=O)C(C)(C)C [Compound D5, 3,6-Dimethyl-2,5-dipivaloyloxymethylpyrazine] | 3.2 ± 0.3 h | 96.1 ± 0.2% | 3.4 ± 0.4 h | 2.5 ± 0.18 | 80 to 82 °C | 0.364 ± 0.039 |  |  |  | 29.9 ± 1.36 µg/mL (≈ 0.0889 mM) |  |  |  |  |  | 
CCCCCCCCCCCCCCCC(=O)OCc1nc(C)c(COC(=O)CCCCCCCCCCCCCCC)nc1C [Compound D16, 2,5-Dihexadecanoyloxymethyl-3,6-dimethylpyrazine] |  | stable ^c |  |  | 74 to 75 °C | 3.911 ± 0.042 | no bioconversion | no bioconversion | thoroughly partitioned into n-octanol |  |  |  |  |  |  | 

Further lines, results first:

half-life [1, 7] | % Unchanged at 24 h (pH 7.4) [2] | half-life [3, 7] | logP [4] | melting point | Capacity Factor [5] | bioconversion to LZDO or monoester in human liver microsomes [1] | bioconversion to LZDO or monoester in human plasma [3] | Log P [4] | solubility at 24 h [6, 8] | % Max of LZDO Released (Human Liver Microsomes) ([1]; maximum percentage of liguzinediol released at 6 h incubation, 37 °C, NADPH) | t1/2 (Human Liver Microsomes) [1, 7] | % Max of LZDO Released (80% Human Plasma) ([3]; maximum percentage of liguzinediol released at 6 h incubation, 37 °C) | t1/2 (80% Human Plasma) [3, 7] | Solubility ([6]; 50 mM phosphate buffer pH 7.4, 25 °C, 24 h, n = 3, mean ± SD) | solubility at 24 h ([6]; phosphate buffer, 25 °C, pH 7.4, aqueous buffer, as restated in conclusions) | Compound
 |  |  | -1.12 ± 0.11 |  | 0.100 ± 0.004 |  |  |  | 224000 µg/mL (≈ 1330 mM) |  |  |  |  |  |  | Cc1nc(CO)c(C)nc1CO [Liguzinediol, 2,5-Dihydroxymethyl-3,6-dimethylpyrazine]
3.3 ± 0.7 h | 99.4 ± 0.4% | 3.3 ± 0.6 h | 3.25 ± 0.13 | 60 to 62 °C | 0.834 ± 0.012 |  |  |  |  |  |  |  |  |  |  | CCCCCCCCCCCCCCCC(=O)OCc1nc(C)c(CO)nc1C [Compound M16, 3,6-Dimethyl-2-hexadecanoyloxymethyl-5-hydroxymethylpyrazine]
 | 98.2 ± 0.6% |  |  |  | 1.055 ± 0.061 |  |  | 3.38 ± 0.20 |  | 15.9 ± 1.2% | 9.5 ± 0.9 h | 15.6 ± 1.6% | 9.6 ± 1.1 h |  |  | 3,6-Dimethyl-5-hydroxy-2-octadecanoyloxymethylpyrazine [Compound M18]
2.2 ± 0.1 h | 99.7 ± 0.2% | 2.6 ± 0.5 h | 3.12 ± 0.15 | 40 to 41 °C | 0.514 ± 0.012 |  |  |  | 2.23 ± 0.11 µg/mL (≈ 0.00636 mM) |  |  |  |  |  |  | CCCCCCCCCCCC(=O)OCc1nc(C)c(CO)nc1C [Compound M12, 3,6-Dimethyl-2-dodecanoyloxymethyl-5-hydroxymethylpyrazine]
5.1 ± 0.2 h | 98.9 ± 0.3% | 2.6 ± 0.1 h | 1.33 ± 0.1 | 66 to 67 °C | 0.210 ± 0.020 |  |  |  |  |  |  |  |  | 8000 ± 350 µg/mL (≈ 31.7 mM) | 8000 µg/mL (≈ 31.7 mM) | Cc1nc(COC(=O)C(C)(C)C)c(C)nc1CO [Compound M5, 3,6-Dimethyl-5-hydroxymethyl-2-pivaloyloxymethylpyrazine]
2.1 ± 0.6 h | 98.9 ± 0.3% | 2.3 ± 0.2 h | 2.48 ± 0.04 | 31 to 32 °C | 0.400 ± 0.015 |  |  |  | 8.89 ± 0.21 µg/mL (≈ 0.0276 mM) |  |  |  |  |  |  | CCCCCCCCCC(=O)OCc1nc(C)c(CO)nc1C [Compound M10, 2-Decanoyloxymethyl-3,6-dimethyl-5-hydroxymethylpyrazine]
